According to patent publication US20250179078A1, “INHIBITORS OF NLRP3” (PTC THERAPEUTICS, INC., priority 2022, published 2025):

target: T1, NLRP3 (Homo sapiens, UniProt Q96P20); experiment: IL-1β Secretion Assay (NLRP3-dependent IL1β secretion in THP1 cells); type: cell-based; conditions: PMA-differentiated THP-1 cells; compounds incubated 20 h; 2.5 μM Nigericin 3 h; HTRF IL-1β readout; read-out: IC50 IL-1β Inhibition
T1 construct: host or cells: THP-1 cells differentiated with PMA
Outline: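 THP-1 cells differentiated with 100 ng/mL PMA for 24 h, then given compound (7-point 3-fold series, 1:200 from DMSO) for 20 h in RPMI+5% FBS. NLRP3 activated with 2.5 μM nigericin for 3 h; secreted IL-1β measured by HTRF; IC50 from logistic fit of % inhibition.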

T1 sequence (Q96P20 whole entry): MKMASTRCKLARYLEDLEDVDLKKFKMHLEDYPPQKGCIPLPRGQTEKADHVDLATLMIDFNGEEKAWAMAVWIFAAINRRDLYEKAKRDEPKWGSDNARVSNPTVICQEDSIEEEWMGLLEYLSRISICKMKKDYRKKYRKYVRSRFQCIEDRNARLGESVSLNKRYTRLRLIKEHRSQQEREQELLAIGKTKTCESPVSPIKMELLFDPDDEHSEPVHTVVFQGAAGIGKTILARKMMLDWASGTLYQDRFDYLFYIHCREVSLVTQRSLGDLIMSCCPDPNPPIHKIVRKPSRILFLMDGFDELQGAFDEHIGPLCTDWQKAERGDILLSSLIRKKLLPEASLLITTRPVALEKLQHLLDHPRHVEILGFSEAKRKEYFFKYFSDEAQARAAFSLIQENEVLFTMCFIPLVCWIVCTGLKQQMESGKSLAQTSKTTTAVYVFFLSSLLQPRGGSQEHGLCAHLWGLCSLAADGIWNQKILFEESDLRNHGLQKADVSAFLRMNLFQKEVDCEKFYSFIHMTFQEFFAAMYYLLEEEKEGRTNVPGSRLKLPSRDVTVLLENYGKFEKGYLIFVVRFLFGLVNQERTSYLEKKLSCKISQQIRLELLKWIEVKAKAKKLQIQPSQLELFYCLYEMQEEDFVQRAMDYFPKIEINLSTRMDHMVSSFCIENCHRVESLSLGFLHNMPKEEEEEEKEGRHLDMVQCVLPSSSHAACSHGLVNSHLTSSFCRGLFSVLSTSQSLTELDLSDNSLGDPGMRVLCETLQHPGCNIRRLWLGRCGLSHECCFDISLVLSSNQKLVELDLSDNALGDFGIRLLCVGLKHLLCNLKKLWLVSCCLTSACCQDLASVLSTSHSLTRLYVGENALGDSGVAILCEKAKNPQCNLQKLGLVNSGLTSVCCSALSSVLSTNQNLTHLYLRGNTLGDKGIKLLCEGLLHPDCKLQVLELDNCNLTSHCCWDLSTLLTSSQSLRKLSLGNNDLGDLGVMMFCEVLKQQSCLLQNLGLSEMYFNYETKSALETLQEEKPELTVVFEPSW

COc1ccc(-c2nnc(N[C@@H]3CCCC[C@H]3O)n3cccc23)c(CC(F)(F)F)c1 [Compound 138, (1R,2R)-2-({1-[4-methoxy-2-(2,2,2-trifluoroethyl)phenyl]pyrrolo[1,2-d][1,2,4]triazin-4-yl}amino)cyclohexan-1-ol] was tested. Which IC50 did it give?
Its IC50 is 1 to 10 nM.

COc1ccc(-c2nnc(NC3CCNC3=O)n3cccc23)c(CC(F)(F)F)c1 (stereo not drawn) [Compound 139, 3-({1-[4-methoxy-2-(2,2,2-trifluoroethyl)phenyl]pyrrolo[1,2-d][1,2,4]triazin-4-yl}amino)pyrrolidin-2-one] was tested. Which IC50 did it give?
Its IC50 is 1 to 10 nM.

For CN1CCC[C@@H](Nc2nnc(-c3ccc(C(F)(F)F)cc3OC(F)(F)F)c3cccn23)C1 [Compound 140, N-[(3R)-1-methylpiperidin-3-yl]-1-[2-(trifluoromethoxy)-4-(trifluoromethyl)phenyl]pyrrolo[1,2-d][1,2,4]triazin-4-amine], which IC50 is on record?
Its IC50 is less than 1 nM.

OC[C@H]1C[C@@H](Nc2nnc(-c3ccc(C(F)(F)F)cc3OC(F)(F)F)c3cccn23)C1 [Compound 141, [(1s,3s)-3-({1-[2-(trifluoromethoxy)-4-(trifluoromethyl)phenyl]pyrrolo[1,2-d][1,2,4]triazin-4-yl}amino)cyclobutyl]methanol] was tested. Which IC50 did it give?
Its IC50 is 1 to 10 nM.

With CC(Nc1nnc(-c2ccc(C(F)(F)F)cc2OC(F)(F)F)c2cccn12)c1cccc(O)c1 (stereo not drawn) [Compound 142, 3-[1-({1-[2-(trifluoromethoxy)-4-(trifluoromethyl)phenyl]pyrrolo[1,2-d][1,2,4]triazin-4-yl}amino)ethyl]phenol] as the compound, how does the IC50 read?
The IC50 was 1 to 10 nM.

For COc1ccc(-c2nnc(N[C@@H]3CCCN(CCO)C3)n3cccc23)c(OC2CC2)c1 [Compound 143, 2-[(3R)-3-({1-[2-(cyclopropyloxy)-4-methoxyphenyl]pyrrolo[1,2-d][1,2,4]triazin-4-yl}amino)piperidin-1-yl]ethan-1-ol], which IC50 is on record?
Its IC50 is 10 to 100 nM.

COc1ccc(-c2nnc(N[C@@H]3CCOC[C@H]3O)n3cccc23)c(CC(F)(F)F)c1 [Compound 144, (3S,4R)-4-({1-[4-methoxy-2-(2,2,2-trifluoroethyl)phenyl]pyrrolo[1,2-d][1,2,4]triazin-4-yl}amino)oxan-3-ol] was tested. Which IC50 did it give?
Its IC50 is 1 to 10 nM.

COc1ccc(-c2nnc(N[C@@H]3CCCN(C)C3)n3cccc23)c(CC(F)(F)F)c1 [Compound 145, 1-[4-methoxy-2-(2,2,2-trifluoroethyl)phenyl]-N-[(3R)-1-methylpiperidin-3-yl]pyrrolo[1,2-d][1,2,4]triazin-4-amine] was tested. Which IC50 did it give?
Its IC50 is less than 1 nM.

Which IC50 does the source give for CN1CCC[C@@H](CNc2nnc(-c3ccc(C(F)(F)F)cc3CC(F)(F)F)c3cccn23)C1 [Compound 146, N-{[(3S)-1-methylpiperidin-3-yl]methyl}-1-[2-(2,2,2-trifluoroethyl)-4-(trifluoromethyl)phenyl]pyrrolo[1,2-d][1,2,4]triazin-4-amine] here?
The IC50 was 1 to 10 nM.

With CN1CCC[C@H](CNc2nnc(-c3ccc(C(F)(F)F)cc3CC(F)(F)F)c3cccn23)C1 [Compound 147, N-{[(3R)-1-methylpiperidin-3-yl]methyl}-1-[2-(2,2,2-trifluoroethyl)-4-(trifluoromethyl)phenyl]pyrrolo[1,2-d][1,2,4]triazin-4-amine] as the compound, how does the IC50 read?
Its IC50 is 1 to 10 nM.

COc1cccc(C(C)Nc2nnc(-c3ccc(OC)cc3C(F)(F)F)c3c(F)ccn23)c1 (stereo not drawn) [Compound 148, 8-fluoro-N-[1-(3-methoxyphenyl)ethyl]-1-[4-methoxy-2-(trifluoromethyl)phenyl]pyrrolo[1,2-d][1,2,4]triazin-4-amine] was tested. Which IC50 did it give?
The IC50 was 100 to 300 nM.

With COc1ccc(-c2nnc(NC(C)c3cccc(O)c3)n3ccc(F)c23)c(C(F)(F)F)c1 (stereo not drawn) [Compound 149, 3-[1-({8-fluoro-1-[4-methoxy-2-(trifluoromethyl)phenyl]pyrrolo[1,2-d][1,2,4]triazin-4-yl}amino)ethyl]phenol] as the compound, how does the IC50 read?
The IC50 was 1 to 10 nM.

Which IC50 does the source give for FC(F)(F)Oc1cc(C(F)(F)F)ccc1-c1nnc(Nc2cc[nH]n2)n2cccc12 [Compound 150, N-(1H-pyrazol-3-yl)-1-[2-(trifluoromethoxy)-4-(trifluoromethyl)phenyl]pyrrolo[1,2-d][1,2,4]triazin-4-amine] here?
Its IC50 is 100 to 300 nM.

For O[C@@H]1CCCC[C@H]1Nc1nnc(-c2ccc(C(F)(F)F)cc2OC(F)(F)F)c2cccn12 [Compound 151, (1R,2R)-2-({1-[2-(trifluoromethoxy)-4-(trifluoromethyl)phenyl]pyrrolo[1,2-d][1,2,4]triazin-4-yl}amino)cyclohexan-1-ol], which IC50 is on record?
Its IC50 is 1 to 10 nM.

Which IC50 does the source give for FC(F)Oc1ccc(-c2nnc(N[C@@H]3CCCOC3)n3cccc23)c(OC(F)(F)F)c1 [Compound 152, 1-[4-(difluoromethoxy)-2-(trifluoromethoxy)phenyl]-N-[(3R)-oxan-3-yl]pyrrolo[1,2-d][1,2,4]triazin-4-amine] here?
The IC50 was 1 to 10 nM.

For O[C@H]1CCC[C@@H](Nc2nnc(-c3ccc(OC(F)F)cc3OC(F)(F)F)c3cccn23)C1 [Compound 153, (1S,3R)-3-({1-[4-(difluoromethoxy)-2-(trifluoromethoxy)phenyl]pyrrolo[1,2-d][1,2,4]triazin-4-yl}amino)cyclohexan-1-ol], which IC50 is on record?
The IC50 was 1 to 10 nM.

O=C1NCCC1Nc1nnc(-c2ccc(OC(F)F)cc2OC(F)(F)F)c2cccn12 (stereo not drawn) [Compound 154, 3-({1-[4-(difluoromethoxy)-2-(trifluoromethoxy)phenyl]pyrrolo[1,2-d][1,2,4]triazin-4-yl}amino)pyrrolidin-2-one] was tested. Which IC50 did it give?
The IC50 was 1 to 10 nM.

How did the IC50 turn out when FC(F)Oc1ccc(-c2nnc(Nc3cc[nH]n3)n3cccc23)c(OC(F)(F)F)c1 [Compound 155, 1-[4-(difluoromethoxy)-2-(trifluoromethoxy)phenyl]-N-(1H-pyrazol-3-yl)pyrrolo[1,2-d][1,2,4]triazin-4-amine] was run?
The IC50 was 10 to 100 nM.

Cc1ccc(-c2nnc(N[C@@H]3CCCC[C@H]3O)n3cccc23)c(CC(F)(F)F)c1 [Compound 156, (1R,2R)-2-({1-[4-methyl-2-(2,2,2-trifluoroethyl)phenyl]pyrrolo[1,2-d][1,2,4]triazin-4-yl}amino)cyclohexan-1-ol] was tested. Which IC50 did it give?
Its IC50 is 1 to 10 nM.

For Cc1ccc(-c2nnc(NC3CCNC3=O)n3cccc23)c(CC(F)(F)F)c1 (stereo not drawn) [Compound 157, 3-({1-[4-methyl-2-(2,2,2-trifluoroethyl)phenyl]pyrrolo[1,2-d][1,2,4]triazin-4-yl}amino)pyrrolidin-2-one], which IC50 is on record?
Its IC50 is 1 to 10 nM.

With Cc1ccc(-c2nnc(N[C@H]3C[C@@](C)(O)C3)n3cccc23)c(CC(F)(F)F)c1 [Compound 158, (1s,3s)-1-methyl-3-({1-[4-methyl-2-(2,2,2-trifluoroethyl)phenyl]pyrrolo[1,2-d][1,2,4]triazin-4-yl}amino)cyclobutan-1-ol] as the compound, how does the IC50 read?
Its IC50 is 1 to 10 nM.

Cc1ccc(-c2nnc(N[C@@H]3CCCN(C)C3)n3cccc23)c(CC(F)(F)F)c1 [Compound 159, N-[(3R)-1-methylpiperidin-3-yl]-1-[4-methyl-2-(2,2,2-trifluoroethyl)phenyl]pyrrolo[1,2-d][1,2,4]triazin-4-amine] was tested. Which IC50 did it give?
The IC50 was less than 1 nM.

For Cc1cc2c(-c3ccc(C(F)(F)F)cc3C(F)(F)F)nnc(N[C@@H]3CCCC[C@H]3O)n2c1 [Compound 160, (1R,2R)-2-({1-[2,4-bis(trifluoromethyl)phenyl]-7-methylpyrrolo[1,2-d][1,2,4]triazin-4-yl}amino)cyclohexan-1-ol], which IC50 is on record?
The IC50 was 1 to 10 nM.

Which IC50 does the source give for Cc1cc2c(-c3ccc(C(F)(F)F)cc3C(F)(F)F)nnc(NC3CCNC3=O)n2c1 (stereo not drawn) [Compound 161, 3-({1-[2,4-bis(trifluoromethyl)phenyl]-7-methylpyrrolo[1,2-d][1,2,4]triazin-4-yl}amino)pyrrolidin-2-one] here?
The IC50 was 1 to 10 nM.
